Measurements taken from US20240409557A1, “5,6-FUSED AND 6,6-FUSED BICYCLIC ALCOHOLS AND ETHERS AND COMPOSITIONS FOR USE AS 15-PROSTAGLANDIN DEHYDROGENASE MODULATORS” (AMGEN INC., priority 2023, published 2024).

Assays:
[1] = target: T1, human recombinant 15-PGDH (Homo sapiens, UniProt P15428); experiment: Recombinant 15-PGDH enzymatic inhibition assay (PGDH-Lumi, NADH signal); assay type: biochemical; details: recombinant 15-PGDH; 15 min pre-incubation, 60 min reaction with PGE2 and NAD+, NADH signal
T1 sequence (P15428 1-266): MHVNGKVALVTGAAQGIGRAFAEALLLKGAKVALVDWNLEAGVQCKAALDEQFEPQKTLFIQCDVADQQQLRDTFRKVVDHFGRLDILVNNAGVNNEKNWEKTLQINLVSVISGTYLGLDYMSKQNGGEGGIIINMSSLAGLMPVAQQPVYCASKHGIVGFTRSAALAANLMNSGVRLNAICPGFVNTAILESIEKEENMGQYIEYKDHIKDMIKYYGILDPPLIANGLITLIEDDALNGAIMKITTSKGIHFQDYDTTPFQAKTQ
How it was run: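 Recombinant 15-PGDH pre-incubated 15 min at room temperature with compound (22 concentrations, 2-fold dilutions) in 50 mM Tris pH 7.5, 0.01% Tween-20, […].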

[2] = target: T2, 15-PGDH in A549 cells (Homo sapiens, UniProt P15428); experiment: A549 cellular 15-PGDH assay (PGE2 accumulation, HTRF); assay type: cell-based; details: interleukin-stimulated, inhibitor 24 hrs, PGE2 by competitive HTRF, read-out: A549 Cell Assay IC50
T2 construct: endogenous in cells; host or cells: A549
T2 sequence (P15428 1-266): T1 sequence (P15428 1-266)
How it was run: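 IL-13-stimulated A549 lung carcinoma cells released PGE2, which was measured in supernatants by competitive HTRF with a Eu-cryptate anti-PGE2 antibody and labelled PGE2. Signal falls as PGE2 rises. IC50 values were derived from the binding data.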

## Cn1nnc2cc(-c3ccc4cc([C@]5(O)C[C@@H](C(F)(F)F)C5)sc4n3)cnc21 [Compound C79C, cis-1-(6-(3-methyl-3H-[1,2,3]triazolo[4,5-b]pyridin-6-yl)thieno[2,3-b]pyridin-2-yl)-3-(trifluoromethyl)cyclobutanol]
[1]
  IC50: 0.585 nM
[2]
  IC50: 0.832 nM

## Cn1cc2cc(-c3ncc4cc([C@]5(O)C[C@@H](C(F)F)C5)sc4n3)cnc2n1 [Compound C80C, cis-3-(difluoromethyl)-1-(2-(2-methyl-2H-pyrazolo[3,4-b]pyridin-5-yl)thieno[2,3-d]pyrimidin-6-yl)cyclobutanol]
[1]
  IC50: 0.771 nM
[2]
  IC50: 1.26 nM

## Cn1cc2cc(-c3ccc4nc([C@]5(O)C[C@@H](C(F)F)C5)sc4n3)cnc2n1 [Compound C81C, cis-3-(difluoromethyl)-1-(5-(2-methyl-2H-pyrazolo[3,4-b]pyridin-5-yl)[1,3]thiazolo[5,4-b]pyridin-2-yl)cyclobutanol]
[1]
  IC50: 0.641 nM
[2]
  IC50: 2.69 nM

## Cn1nnc2cc(-c3ccc4nc([C@]5(O)C[C@@H](C(F)F)C5)sc4n3)cnc21 [Compound C82C, cis-3-(difluoromethyl)-1-(5-(3-methyl-3H-[1,2,3]triazolo[4,5-b]pyridin-6-yl)[1,3]thiazolo[5,4-b]pyridin-2-yl)cyclobutanol]
[1]
  IC50: 9.49 nM
[2]
  IC50: 34.2 nM

## Cc1c2ccc(-c3cnc4nn(C)cc4c3)nc2sc1[C@]1(O)C[C@@H](C(F)F)C1 [Compound C83C, cis-3-(difluoromethyl)-1-(3-methyl-6-(2-methyl-2H-pyrazolo[3,4-b]pyridin-5-yl)thieno[2,3-b]pyridin-2-yl)cyclobutanol]
[1]
  IC50: 5.33 nM
[2]
  IC50: 12.3 nM

## Cn1cc2cc(-c3ccc4sc([C@]5(O)C[C@@H](C(F)F)C5)cc4n3)cnc2n1 [Compound C84C, cis-3-(difluoromethyl)-1-(5-(2-methyl-2H-pyrazolo[3,4-b]pyridin-5-y1)thieno[3,2-b]pyridin-2-yl)cyclobutanol]
[1]
  IC50: 7.79 nM
[2]
  IC50: 13.2 nM

## Cn1nnc2cc(-c3ncc4cc([C@]5(O)C[C@@H](C(F)F)C5)sc4n3)cnc21 [Compound C85C, cis-3-(difluoromethyl)-1-(2-(3-methyl-3H-[1,2,3]triazolo[4,5-b]pyridin-6-yl)thieno[2,3-d]pyrimidin-6-yl)cyclobutanol]
[1]
  IC50: 2.89 nM
[2]
  IC50: 7.6 nM

## Cn1cc2cc(-c3ccc4sc([C@]5(O)C[C@@H](C(F)(F)F)C5)cc4n3)cnc2n1 [Compound C86C, cis-1-(5-(2-methyl-2H-pyrazolo[3,4-b]pyridin-5-yl)thieno[3,2-b]pyridin-2-yl)-3-(trifluoromethyl)cyclobutanol]
[1]
  IC50: 1.52 nM
[2]
  IC50: 4.12 nM

## CCn1cc2cc(-c3ccc4cc([C@]5(O)C[C@@H](C(F)F)C5)sc4n3)cnc2n1 [Compound C87C, cis-3-(difluoromethyl)-1-(6-(2-ethyl-2H-pyrazolo[3,4-b]pyridin-5-yl)thieno[2,3-b]pyridin-2-yl)cyclobutanol]
[1]
  IC50: 0.61 nM
[2]
  IC50: 0.842 nM

## Cn1cc2cc(-c3ncc4sc([C@]5(O)C[C@@H](C(F)F)C5)cc4n3)cnc2n1 [Compound C89C, cis-3-(difluoromethyl)-1-(2-(2-methyl-2H-pyrazolo[3,4-b]pyridin-5-yl)thieno[3,2-d]pyrimidin-6-yl)cyclobutanol]
[1]
  IC50: 33.8 nM
[2]
  IC50: 49.1 nM

## Cc1c2cnc(-c3cnc4nn(C)cc4c3)nc2sc1[C@]1(O)C[C@@H](C(F)F)C1 [Compound C90C, cis-3-(difluoromethyl)-1-(5-methyl-2-(2-methyl-2H-pyrazolo[3,4-b]pyridin-5-yl)thieno[2,3-d]pyrimidin-6-yl)cyclobutanol]
[1]
  IC50: 14.4 nM
[2]
  IC50: 33 nM

## Cc1cn2ncc(-c3ccc4cc([C@]5(O)C[C@@H](C(F)F)C5)sc4n3)cc2n1 [Compound C92C, cis-3-(difluoromethyl)-1-(6-(2-methylimidazo[1,2-b]pyridazin-7-yl)thieno[2,3-b]pyridin-2-yl)cyclobutanol]
[1]
  IC50: 1.46 nM
[2]
  IC50: 5.27 nM

## Cc1nc2cc(-c3ccc4cc([C@]5(O)C[C@@H](C(F)F)C5)sc4n3)cnc2[nH]1 [Compound C93C, cis-3-(difluoromethyl)-1-(6-(2-methyl-3H-imidazo[4,5-b]pyridin-6-yl)thieno[2,3-b]pyridin-2-yl)cyclobutanol]
[1]
  IC50: 0.587 nM
[2]
  IC50: 1.96 nM

## CO[C@H]1C[C@](O)(c2cc3cnc(-c4cnc5nn(C)cc5c4)nc3s2)C1 [Compound C94C, cis-3-methoxy-1-(2-(2-methyl-2H-pyrazolo[3,4-b]pyridin-5-yl)thieno[2,3-d]pyrimidin-6-yl)cyclobutanol]
[1]
  IC50: 2 nM
[2]
  IC50: 1.45 nM

## Cn1nnc2cc(-c3ncc4cc([C@]5(O)C[C@@H](C(F)(F)F)C5)sc4n3)cnc21 [Compound C95C, cis-1-(2-(3-methyl-3H-[1,2,3]triazolo[4,5-b]pyridin-6-yl)thieno[2,3-d]pyrimidin-6-yl)-3-(trifluoromethyl)cyclobutanol]
[1]
  IC50: 1.26 nM
[2]
  IC50: 9.76 nM

## Cc1cn2cc(-c3ccc4cc([C@]5(O)C[C@@H](C(F)F)C5)sc4n3)cnc2n1 [Compound C97C, cis-3-(difluoromethyl)-1-(6-(2-methylimidazo[1,2-a]pyrimidin-6-yl)thieno[2,3-b]pyridin-2-yl)cyclobutanol]
[1]
  IC50: 0.333 nM
[2]
  IC50: 1.46 nM

## Cn1cc2cc(-c3ncc4cc([C@]5(O)C[C@@H](C6CC6)C5)sc4n3)cnc2n1 [Compound C99C, cis-3-cyclopropyl-1-(2-(2-methyl-2H-pyrazolo[3,4-b]pyridin-5-yl)thieno[2,3-d]pyrimidin-6-yl)cyclobutanol]
[1]
  IC50: 0.291 nM
[2]
  IC50: 0.666 nM

## Cn1cc2cc(-c3ncc4cc([C@]5(O)C[C@@H](OC(F)(F)F)C5)sc4n3)cnc2n1 [Compound C100C, cis-1-(2-(2-methyl-2H-pyrazolo[3,4-b]pyridin-5-yl)thieno[2,3-d]pyrimidin-6-yl)-3-(trifluoromethoxy)cyclobutanol]
[1]
  IC50: 0.3 nM
[2]
  IC50: 0.671 nM

## Cn1nnc2cc(-c3ccc4cc([C@]5(O)C[C@@H](OC(F)(F)F)C5)sc4n3)cnc21 [Compound C101C, cis-1-(6-(3-methyl-3H-[1,2,3]triazolo[4,5-b]pyridin-6-yl)thieno[2,3-b]pyridin-2-yl)-3-(trifluoromethoxy)cyclobutanol]
[1]
  IC50: 0.496 nM
[2]
  IC50: 0.847 nM

## O[C@]1(c2cc3ccc(-c4cnc5[nH]nnc5c4)nc3s2)C[C@H](C(F)F)C1 [Compound C103C, cis-3-(difluoromethyl)-1-(6-(3H-[1,2,3]triazolo[4,5-b]pyridin-6-yl)thieno[2,3-b]pyridin-2-yl)cyclobutanol]
[1]
  IC50: 0.302 nM
[2]
  IC50: 2.43 nM

## Cn1cc2cc(-c3ccc4nc([C@]5(O)C[C@@H](OC(F)(F)F)C5)sc4n3)cnc2n1 [Compound C105C, cis-1-(5-(2-methyl-2H-pyrazolo[3,4-b]pyridin-5-yl)[1,3]thiazolo[5,4-b]pyridin-2-yl)-3-(trifluoromethoxy)cyclobutanol]
[1]
  IC50: 0.294 nM
[2]
  IC50: 0.788 nM

## Cn1cc2cc(-c3ncc4cc(C5(O)CC6(CC6)C5)sc4n3)cnc2n1 [Compound C107, 5-(2-(2-methyl-2H-pyrazolo[3,4-b]pyridin-5-yl)thieno[2,3-d]pyrimidin-6-yl)spiro[2.3]hexan-5-ol]
[1]
  IC50: 0.49 nM
[2]
  IC50: 0.989 nM

## Cn1cc2cc(-c3ccc4nc(C5(O)CC6(CC6)C5)sc4n3)cnc2n1 [Compound C108, 5-(5-(2-methyl-2H-pyrazolo[3,4-b]pyridin-5-yl)[1,3]thiazolo[5,4-b]pyridin-2-yl)spiro [2.3]hexan-5-ol]
[1]
  IC50: 0.671 nM
[2]
  IC50: 1.25 nM

## Cn1cc2cc(-c3ncc4nc([C@]5(O)C[C@@H](C(F)F)C5)sc4n3)cnc2n1 [Compound C109C]
[1]
  IC50: 3.35 nM
[2]
  IC50: 8.48 nM

## Cn1nnc2cc(-c3ncc4cc([C@]5(O)C[C@@H](OC(F)(F)F)C5)sc4n3)cnc21 [Compound C111C, cis-1-(2-(3-methyl-3H-[1,2,3]triazolo[4,5-b]pyridin-6-yl)thieno[2,3-d]pyrimidin-6-yl)-3-(trifluoromethoxy)cyclobutanol]
[1]
  IC50: 1.09 nM
[2]
  IC50: 3.95 nM

## Cn1nnc2cc(-c3ccc4nc([C@]5(O)C[C@H](OC(F)(F)F)C5)sc4n3)cnc21 [Compound C112C, cis-1-(5-(3-methyl-3H-[1,2,3]triazolo[4,5-b]pyridin-6-yl)[1,3]thiazolo[5,4-b]pyridin-2-yl)-3-(trifluoromethoxy)cyclobutanol]
[1]
  IC50: 0.589 nM
[2]
  IC50: 3.15 nM

## Cn1cc2cc(-c3ncc4cc(C5(O)CC6(CC(F)(F)C6)C5)sc4n3)cnc2n1 [Compound C116, 6,6-difluoro-2-(2-(2-methyl-2H-pyrazolo[3,4-b]pyridin-5-yl)thieno[2,3-d]pyrimidin-6-yl)spiro[3.3]heptan-2-ol]
[1]
  IC50: 0.43 nM
[2]
  IC50: 1.95 nM

## Cn1cc2cc(-c3ccc4sc([C@]5(O)C[C@@H](OC(F)(F)F)C5)cc4n3)cnc2n1 [Compound C117C, cis-1-(5-(2-methyl-2H-pyrazolo[3,4-b]pyridin-5-yl)thieno[3,2-b]pyridin-2-yl)-3-(trifluoromethoxy)cyclobutanol]
[1]
  IC50: 0.429 nM
[2]
  IC50: 1.46 nM

## COC[C@H]1C[C@](O)(c2cc3cnc(-c4cnc5nn(C)cc5c4)nc3s2)C1 [Compound C119C, cis-3-(methoxymethyl)-1-(2-(2-methyl-2H-pyrazolo[3,4-b]pyridin-5-yl)thieno[2,3-d]pyrimidin-6-yl)cyclobutanol]
[1]
  IC50: 2.8 nM
[2]
  IC50: 6.66 nM
